Reference: patent publication US20170065579A1, “Sustained Release Low Dose Formulations and Uses Thereof” (priority 2015, published 2017)

Key:
[1] = naltrexone release from payloaded matrices (in vitro release); assay type: physicochemical; settings: in contrast to the hydrochloride form
Description: The number of days of release are shown on the horizontal axis (X axis). The cumulative percentage of naltrexone release is shown on the vertical axis (Y axis). […] Release was measured under conditions of about 37 degrees Celsius. Before release was measured, steps had been taken to incorporate (payload) naltrexone into the matrices.
The number of days of release are shown on the horizontal axis (X axis). The cumulative percentage of naltrexone release is shown on the vertical axis (Y axis). Before release was measured, steps had been taken to incorporate (payload) naltrexone into the matrices.
Exemplary Formula #1—PBS Buffer Containing 0.01% Sodium Azide as Suspension and Release Medium: • 1. To a 1 L volumetric flask, add the contents of 1 package of ready-to-use powder for PBS • 2. Add sodium azide ([…]) • 3. Add Millipore water to the calibration mark • 4. Dissolve all solids • 5. Store at 8 degrees celsius (max)

[2] = low dosages, about 3-5 mg/day; cited from earlier work
opioid receptor = settings: cited from earlier work
[3] = in vivo, cited from earlier work

Structure (SMILES)	release profiles [1]	symptom severity [2]	potency relative to naloxone (opioid receptor)	oral bioavailability ([3]; po)	duration of effect [3]
O=C1CC[C@@]2(O)[C@H]3Cc4ccc(O)c5c4[C@@]2(CCN3CC2CC2)[C@H]1O5 [naltrexone base, naltrexone]	meet preferred target criteria				
O=C1CC[C@@]2(O)[C@H]3Cc4ccc(O)c5c4[C@@]2(CCN3CC2CC2)[C@H]1O5 [naltrexone]		reduce symptom severity	twice the potency	good oral bioavailability	can last for a day
